Reference: ChEMBL document CHEMBL1777670, “Novel 12-membered non-antibiotic macrolides from erythromycin A; EM900 series as novel leads for anti-inflammatory and/or immunomodulatory agents” (Bioorg Med Chem Lett, 2011)
Values after ≈ are worked out from the molar mass of the structure shown.

Tests used:
[1] = test system: THP-1; assay: Immunomodulatory activity in human THP1 cells assessed as differentiation of monocyte to macrophage after 4 days by MTT assay; type: functional; conditions: THP-1, 96 h, read-out: ED50 (the source's name)
[2] = test system: THP-1; assay: Cytotoxicity against human THP1 cells using cell count reagent SF; type: cell-based
[3] = test system: Staphylococcus aureus; assay: Antimicrobial activity against Staphylococcus aureus Smith by CLSI method; type: functional
[4] = test system: Staphylococcus aureus; assay: Antimicrobial activity against Staphylococcus aureus FDA209P by CLSI method; type: functional
[5] = test system: Escherichia coli; assay: Antimicrobial activity against Escherichia coli NIHJ JC-2 by CLSI method; type: functional
[6] = test system: Micrococcus luteus; assay: Antimicrobial activity against Micrococcus luteus ATCC 9341 by CLSI method; type: functional
[7] = test system: Klebsiella pneumoniae; assay: Antimicrobial activity against Klebsiella pneumoniae NCTN9632 by CLSI method; type: functional
[8] = test system: Serratia marcescens; assay: Antimicrobial activity against Serratia marcescens IFO12648 by CLSI method; type: functional
[9] = test system: Micrococcus luteus; assay: Antimicrobial activity against Micrococcus luteus ATCC 21212 by CLSI method; type: functional
[10] = test system: Acinetobacter calcoaceticus; assay: Antimicrobial activity against Acinetobacter calcoaceticus IFO2552 by CLSI method; type: functional
[11] = test system: Staphylococcus epidermidis; assay: Antimicrobial activity against Staphylococcus epidermidis […] by CLSI method; type: functional
[12] = test system: Staphylococcus aureus; assay: Antimicrobial activity against Staphylococcus aureus 8325 (pEP2104) by CLSI method; type: functional
[13] = test system: Klebsiella aerogenes; assay: Antimicrobial activity against Enterobacter aerogenes NCTC10006 by CLSI method; type: functional

CC[C@H]1OC(=O)O[C@@]1(C)[C@@H]1OC(=O)[C@H](C)C(=O)[C@H](C)[C@@H](O[C@@H]2O[C@H](C)C[C@H](N(C)C)[C@H]2OC(C)=O)[C@@]2(C)C[C@@H](C)[C@H](O2)[C@@H]1C
EC50 [1]: 27.9 µM
Activity [2]: > 100 µM

CC[C@@H](OC(C)=O)[C@@](C)(O)[C@@H]1OC(=O)[C@H](C)[C@@H](O[C@H]2C[C@@](C)(OC)[C@@H](O)[C@H](C)O2)[C@H](C)[C@@H](O[C@@H]2O[C@H](C)C[C@H](N(C)C)[C@H]2O)[C@@]2(C)C[C@@H](C)[C@H](O2)[C@@H]1C
EC50 [1]: 7.7 µM
Activity [2]: 100 µM

CC[C@H]1OC(=O)O[C@@]1(C)[C@@H]1OC(=O)[C@H](C)[C@@H](O)[C@H](C)[C@@H](O[C@@H]2O[C@H](C)C[C@H](N(C)C)[C@H]2OC(C)=O)[C@@]2(C)C[C@@H](C)[C@H](O2)[C@@H]1C
EC50 [1]: 55.7 µM
Activity [2]: > 100 µM

CO[C@]1(C)C[C@H](O[C@H]2[C@H](C)[C@@H](O[C@@H]3O[C@H](C)C[C@H](N(C)C)[C@H]3O)[C@@]3(C)C[C@@H](C)[C@H](O3)[C@H](C)[C@H](/C(C)=N/O)OC(=O)[C@@H]2C)O[C@@H](C)[C@@H]1O
EC50 [1]: 12.3 µM
Activity [2]: > 100 µM

CC[C@@H](O)[C@@](C)(O)[C@@H]1OC(=O)[C@H](C)[C@@H](O)[C@H](C)[C@@H](O[C@@H]2O[C@H](C)C[C@H](N(C)C)[C@H]2OC(C)=O)[C@@]2(C)C[C@@H](C)[C@H](O2)[C@@H]1C
EC50 [1]: > 100 µM
Activity [2]: > 100 µM

CC[C@H]1OC(=O)O[C@@]1(C)[C@@H]1OC(=O)[C@H](C)C(=O)[C@H](C)[C@@H](O[C@@H]2O[C@H](C)C[C@H](N(C)C)[C@H]2O)[C@@]2(C)C[C@@H](C)[C@H](O2)[C@@H]1C
EC50 [1]: 26.3 µM
Activity [2]: > 100 µM

CC[C@@H](O)[C@@](C)(O)[C@@H]1OC(=O)[C@H](C)[C@@H](O[C@H]2C[C@@](C)(OC)[C@@H](O)[C@H](C)O2)[C@H](C)[C@@H](O[C@@H]2O[C@H](C)C[C@H](N(C)C)[C@H]2OC(C)=O)[C@@]2(C)C[C@@H](C)[C@H](O2)[C@@H]1C
EC50 [1]: 16.1 µM
Activity [2]: 100 µM

CC[C@H]1OC(=O)[C@H](C)[C@@H](O[C@H]2C[C@@](C)(OC)[C@@H](O)[C@H](C)O2)[C@H](C)[C@@H](O[C@@H]2O[C@H](C)C[C@H](N(C)C)[C@H]2O)[C@](C)(O)C[C@@H](C)C(=O)[C@H](C)[C@@H](O)[C@]1(C)O [ERYTHROMYCIN]
MIC [3]: ≤ 0.5 µg/mL
MIC [4]: ≤ 0.5 µg/mL
MIC [5]: 64 µg/mL (≈ 87.2 µM)
MIC [6]: ≤ 0.5 µg/mL
MIC [7]: 32 µg/mL (≈ 43.6 µM)
MIC [8]: 128 µg/mL (≈ 174 µM)
MIC [9]: 1 µg/mL (≈ 1.36 µM)
MIC [10]: 4 µg/mL (≈ 5.45 µM)
MIC [11]: ≤ 0.5 µg/mL
MIC [12]: 64 µg/mL (≈ 87.2 µM)
MIC [13]: 128 µg/mL (≈ 174 µM)

CC[C@@H]1O[C@@]1(C)[C@@H]1OC(=O)[C@H](C)[C@@H](O[C@H]2C[C@@](C)(OC)[C@@H](O)[C@H](C)O2)[C@H](C)[C@@H](O[C@@H]2O[C@H](C)C[C@H](N(C)C)[C@H]2O)[C@@]2(C)C[C@@H](C)[C@H](O2)[C@@H]1C
EC50 [1]: 10.2 µM
Activity [2]: 100 µM

CC[C@@H](O)[C@@](C)(O)[C@@H]1OC(=O)[C@H](C)[C@@H](O[C@H]2C[C@@](C)(OC)[C@@H](O)[C@H](C)O2)[C@H](C)[C@@H](O[C@@H]2O[C@H](C)C[C@H](N(C)C)[C@H]2O)[C@@]2(C)C[C@@H](C)[C@H](O2)[C@@H]1C
MIC [3]: > 128 µg/mL
MIC [4]: > 128 µg/mL
MIC [5]: > 128 µg/mL
MIC [6]: 128 µg/mL (≈ 178 µM)
MIC [7]: > 128 µg/mL
MIC [8]: > 128 µg/mL
MIC [9]: > 128 µg/mL
EC50 [1]: 17.1 µM
MIC [10]: > 128 µg/mL
MIC [11]: > 128 µg/mL
MIC [12]: > 128 µg/mL
MIC [13]: > 128 µg/mL
Activity [2]: 100 µM

CO[C@]1(C)C[C@H](O[C@H]2[C@H](C)[C@@H](O[C@@H]3O[C@H](C)C[C@H](N(C)C)[C@H]3O)[C@@]3(C)C[C@@H](C)[C@H](O3)[C@H](C)[C@H](C(C)=O)OC(=O)[C@@H]2C)O[C@@H](C)[C@@H]1O
EC50 [1]: 12.3 µM
Activity [2]: 100 µM
